SMILES strings stand for the structures.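 Cells were grown in 96-well plates and exposed to each compound for 48 hours at five concentrations; endpoints were interpolated linearly between bracketing concentrations, or set to the highest concentration if not reached. GI50 = concentration required for 50% inhibition of growth. TGI denotes the concentration required for complete inhibition of growth.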

What all share (experiment): NCI-60 cell line screen, 48 h
In test [1] the test system is A549 NSCLC.
Test [2] deals with HL-60(TB) leukemia.
Test [3] concerns HT29 colon.
For test [4], the system named is M14 melanoma.
In test [5] the test system is MCF7 breast.
Test [6] concerns OVCAR-4 ovarian.
The test system of test [7] is SF-295 CNS.
Test [8] relates to SR leukemia.

`COc1ccc(/C=C\c2cc(OC)c(OC)c(OC)c2)cc1NC(=O)[C@@H](N)CO`: the GI50 was 0.0295 µM in test [1]; under 0.0178 µM in test [2]; under 0.0173 µM in test [3]; 0.0123 µM in test [4]; 0.0207 µM in test [5]; 0.0355 µM in test [6]. Moreover, the GI50 in test [7] is under 0.01 µM; in test [8], under 0.015 µM. Besides, the TGI in test [1] was over 100 µM; in test [2] it was 0.758 µM; in test [3], 20.5 µM; in test [4] it was over 100 µM; in test [5] it was over 100 µM; in test [6], over 100 µM. Moreover, the TGI in test [7] and in test [8] was over 100 µM in each case.
Take `CC(=O)C(C(=N)C#N)C(=O)Nc1ccccc1` (configuration not stated): the TGI in test [1], in test [3], in test [4], in test [5], in test [6] and in test [7] was over 100 µM each time. In test [8], this compound yielded a TGI of over 100 µM.
Consider `COC(=O)C/C(C)=C/[C@@H](O)[C@H]1O[C@@H]2CC/C(Cl)=C/C/C=C(/C)[C@H](OC(C)=O)CC(=O)O[C@@H]1C2`, for which the GI50 in test [1] was 10 µM; in test [2], 1.8 µM; in test [3], 1.26 µM; in test [5], 4.86 µM; in test [8], 0.813 µM. The TGI in test [1] was over 25 µM; in test [2], 11.9 µM; in test [3] it was over 25 µM; in test [5], 15.7 µM; in test [8], 3.19 µM.
For the compound `NCCCn1c2c(c3ccccc3c1=O)C(=O)c1cc3c(cc1-2)OCO3`, the GI50 in test [1] is 0.0273 µM; in test [2] it was 0.117 µM; in test [3], 0.17 µM; in test [4], 0.118 µM; in test [5], 0.126 µM; in test [7], 0.297 µM. Moreover, the TGI in test [1] is 0.658 µM; in test [3], 1.35 µM; in test [4] it was 1.51 µM; in test [5], over 52.7 µM; in test [7] it was 1.74 µM.
In the case of `C=C(CN1CCc2ccccc2C1)c1ccc(/C=C/C(=O)Nc2ccccc2N)cc1`, the GI50 was 1.79 µM in test [1]; 4.28 µM in test [2]; 59.9 µM in test [3]; 2.37 µM in test [5]; 45.4 µM in test [6]; 3.09 µM in test [7]. Also, the TGI was over 100 µM in test [1]; 76.8 µM in test [2]; over 100 µM in test [3]; over 100 µM in test [5]; over 100 µM in test [6]; 40.6 µM in test [7].
Regarding `CN(C)CCCNC(=O)c1cc(NC(=O)c2cc(NC(=O)CCCN3c4ccccc4C=Cc4ccccc43)cn2C)cn1C`, the GI50 is 11.5 µM in test [1]; 14.3 µM in test [2]; 3.59 µM in test [3]; 2.97 µM in test [4]; 4.2 µM in test [5]; 23.2 µM in test [6]. Further, in test [7], the GI50 is 2.07 µM. Moreover, the TGI was 39.9 µM in test [1]; 41.4 µM in test [2]; over 100 µM in test [3]; over 100 µM in test [4]; over 100 µM in test [5]; 97.4 µM in test [6]. Besides, in test [7], the TGI is 5.38 µM.
With `COc1cc(-c2cc(C(=O)Nc3nc4ccccc4s3)nc3cc(-c4ccccc4)nn23)cc(OC)c1OC`, the GI50 in test [4] is 2.39 µM; in test [5] it was 22.4 µM; in test [6] it was over 100 µM; in test [7], 10.6 µM; in test [8], 19.7 µM. Moreover, the TGI in test [4] was over 100 µM; in test [5], over 100 µM; in test [6], over 100 µM; in test [7] it was 32.7 µM; in test [8], 52.5 µM.
Regarding `CCOC(=O)c1[nH]c2cccc3c2c1CC(Br)C3=O` (configuration not stated), the TGI in test [1] came out at 38.2 µM; in test [2] it was 10.7 µM; in test [3], 47.7 µM; in test [4], 27.2 µM; in test [5], 84.3 µM; in test [7], 32.6 µM. Besides, in test [8], the TGI amounted to 4.99 µM.
As for `O=C(O)C(Cc1ccccc1-c1ccccc1)C(=O)O`, the TGI in test [1], in test [3], in test [4], in test [5], in test [6] and in test [7] was over 100 µM in each case. The same compound had a TGI in test [8] of over 100 µM.
Turning to `COc1cc2c3c(n(CCCO)c(=O)c2cc1OC)-c1cc2c(cc1C3=O)OCO2`, the GI50 was 16.9 µM in test [1]; 2.34 µM in test [2]; over 46.5 µM in test [3]; 3.68 µM in test [4]; 2.94 µM in test [5]; over 87.3 µM in test [6]. Besides, in test [7], the GI50 was 1.17 µM. The TGI in test [1] is over 100 µM; in test [2], 10.4 µM; in test [3] it was over 100 µM; in test [4] it was 32.8 µM; in test [5], over 100 µM; in test [6], over 100 µM. In test [7], this compound showed a TGI of over 48.3 µM.
Take `COc1ccc2c(CN3CCC(CO)CC3)cc3cc4c(cc3c2c1)OCO4`: the GI50 in test [2] was 0.286 µM; in test [3] it was 0.134 µM; in test [4], 0.296 µM; in test [5], 0.211 µM; in test [6], 0.438 µM; in test [7], 0.241 µM. Besides, in test [8], the GI50 was 0.0666 µM. Also, the TGI is 1.72 µM in test [2]; 2.6 µM in test [3]; 1.26 µM in test [4]; 2.55 µM in test [5]; 11.4 µM in test [6]; 3.29 µM in test [7]. In test [8], this compound showed a TGI of 0.712 µM.
For the compound `Cc1c(C(=O)N/N=C/c2ccc(O)cc2)nnn1-c1ccnc2c(C(F)(F)F)cccc12`, the GI50 was over 100 µM in test [1]; over 100 µM in test [2]; over 100 µM in test [4]; 9.12 µM in test [5]; 5.09 µM in test [6]; 22 µM in test [7]. In test [8], the GI50 was 44.1 µM. In addition, the TGI in test [1], in test [2], in test [4], in test [5], in test [6] and in test [7] was over 100 µM each time. The TGI in test [8] was over 100 µM.
On to `CC(C)SC1SCC2C(=O)N(C)C3(CC3C)C(=O)OCC(NC(=O)c3nc4ccccc4cc3O)C(=O)NC(C)C(=O)N(C)C1C(=O)N(C)C1(CC1C)C(=O)OCC(NC(=O)c1nc3ccccc3cc1O)C(=O)NC(C)C(=O)N2C` (configuration not stated), for which the TGI was 17 µM in test [1]; under 0.0001 µM in test [2]; 2.88 µM in test [3]; under 0.0001 µM in test [4]; under 0.0001 µM in test [6]; 0.00809 µM in test [7]. Moreover, the TGI in test [8] is under 0.0001 µM.
For `Cc1ccc(C)c(-n2c(-c3ccc(Br)cc3)csc2=NC(=O)c2ccccc2F)c1`, the GI50 was over 100 µM in test [1]; 2.82 µM in test [2]; over 100 µM in test [4]; 9.57 µM in test [6]; 52.4 µM in test [7]. The TGI in test [1], in test [2], in test [4], in test [6] and in test [7] was over 100 µM throughout.
Consider `CS(=O)(=O)c1ccc(Oc2nccc(-c3c(-c4ccc(F)cc4)ncn3C3CCNCC3)n2)cc1`, for which the GI50 is over 25 µM in test [1]; over 20.6 µM in test [2]; over 22.2 µM in test [3]; over 25 µM in test [4]; over 25 µM in test [5]; over 25 µM in test [6]. In addition, the GI50 in test [7] was over 25 µM. In addition, the TGI in test [1], in test [2], in test [3], in test [4], in test [5] and in test [6] was over 25 µM each time. In test [7], this compound came in with a TGI of over 25 µM.
For the compound `O=C(Nc1cccc(C2=NCCN2)c1)c1ccc(OCCCOc2ccc(C(=O)Nc3cccc(C4=NCCN4)c3)cc2)cc1`, the GI50 is 2.3 µM in test [2], 2.88 µM in test [4], 3.29 µM in test [7] and 1.96 µM in test [8]. In addition, the TGI in test [2], in test [4], in test [7] and in test [8] was over 100 µM each time.
`O=C(CCl)Nc1ccccc1SCc1cc(Cl)cc2c1OCOC2`: the GI50 is 20.2 µM in test [1]; 2.15 µM in test [2]; 4.27 µM in test [3]; 4.68 µM in test [4]; 3.41 µM in test [5]; 3.14 µM in test [6]. Besides, in test [7], the GI50 was 20 µM. The TGI was 45.1 µM in test [1]; 4.31 µM in test [2]; 14.5 µM in test [3]; 16.8 µM in test [4]; 15.4 µM in test [5]; 12.5 µM in test [6]. Moreover, the TGI in test [7] was determined as 41.9 µM.
`CC1=C(C(=O)Nc2ccc(F)c(Cl)c2)C(c2cccc(O)c2)NC(=S)N1` (configuration not stated): the GI50 in test [1] is 21 µM; in test [2], 25.8 µM; in test [4] it was 14.7 µM; in test [5], 17.5 µM; in test [7], 18 µM; in test [8], 16.4 µM. Further, the TGI in test [1], in test [2], in test [4], in test [5], in test [7] and in test [8] was over 50 µM in each case.
With `COc1cc(/C=C2\CC(C)CC3C2=NN(c2ccccc2)C3c2cc(OC)c(OC)c(OC)c2)cc(OC)c1OC` (configuration not stated), the GI50 in test [1] was 14.9 µM; in test [2], 6.48 µM; in test [3], 11.1 µM; in test [4], 14.9 µM; in test [5] it was 10.6 µM; in test [6], 14.2 µM. Besides, the GI50 in test [7] is 10.3 µM. Moreover, the TGI in test [1] was over 100 µM; in test [2], 90.6 µM; in test [3], 39.9 µM; in test [4], 52.1 µM; in test [5], over 100 µM; in test [6] it was over 100 µM. This compound came in with a TGI in test [7] of 63.7 µM.
For `COc1cccc2c(Nc3ccc(C(=O)NCCNCCO)cc3)cc(-c3ccccc3)nc12`, the GI50 was over 100 µM in test [1]; 26.6 µM in test [2]; 36 µM in test [3]; 26.9 µM in test [4]; 13.5 µM in test [6]; 40.9 µM in test [7]. Besides, the TGI in test [1] was over 100 µM; in test [2], 99.2 µM; in test [3], over 100 µM; in test [4], 74.7 µM; in test [6] it was 43.7 µM; in test [7] it was over 100 µM.
In the case of `CCOC(=O)Oc1c(OC)cc(C(=O)c2ccc(OC)c(OC(=O)CCl)c2OC)cc1OC`, the GI50 was 3.39 µM in test [1]; 3.15 µM in test [3]; 0.491 µM in test [4]; 0.88 µM in test [5]; 6.34 µM in test [6]; 0.886 µM in test [7]. The GI50 in test [8] is 0.459 µM. Moreover, the TGI was over 100 µM in test [1]; 18.8 µM in test [3]; over 100 µM in test [4]; over 100 µM in test [5]; over 100 µM in test [6]; 33.7 µM in test [7]. Further, the TGI in test [8] is over 100 µM.
Turning to `O=C1CC2(CCCc3sccc32)C(=O)N1` (configuration not stated), the TGI in test [1], in test [2], in test [3], in test [4], in test [5] and in test [6] was over 100 µM in each case. The compound further came in with a TGI in test [7] of over 100 µM.
`COc1ccc(-c2nc3sccn3c2/C=C/C(=O)c2cc(OC)c(OC)c(OC)c2)cc1OC`: the GI50 is 2.62 µM in test [1]; 1.84 µM in test [2]; 3.48 µM in test [3]; 3.1 µM in test [4]; 2.85 µM in test [6]; 3.08 µM in test [7]. Besides, in test [8], the GI50 was 1.3 µM. Further, the TGI in test [1] was 6.03 µM; in test [2] it was 4.98 µM; in test [3], 9.88 µM; in test [4] it was 9.3 µM; in test [6], 77.2 µM; in test [7] it was 24 µM. The same compound registered a TGI in test [8] of 4.15 µM.

For the origin of these results see PubChem BioAssay (NCI).
